Laboratory results taken from PubChem BioAssay AID1963867 (Molecular Pharmacology Branch, DTP, NCI, 2024).

Test system: KRAS-mutant PDC tumor spheroid with HUVEC/MSC, viability
Assay: Anticancer human tumor 327498-153-R-J2-PDC patient-derived uterine carcinosarcoma cell line growth inhibition [KRAS2]
Settings: for IC50: curve of first compound; for viability, T/C: stronger effect = lower value
Outline: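 KRAS-mutant tumor cells were grown as spheroids with HUVEC endothelial cells and human MSCs as stroma. Targeted agents were tested alone and with KRAS pathway inhibitors. Doses started at or near clinical Cmax, or 10 microM, descending half-log.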

[1] = second compound 0.1 µM, first compound 0.000316 µM
[2] = second compound 0.1 µM, first compound 0.001 µM
[3] = second compound 0.1 µM, first compound 0.00316 µM
[4] = second compound 0.1 µM, first compound 0.01 µM
[5] = second compound 0.1 µM, first compound 0.0316 µM
[6] = second compound 0.1 µM, first compound 0.1 µM
[7] = second compound 0.316 µM, first compound 0.000316 µM
[8] = second compound 0.316 µM, first compound 0.001 µM
[9] = second compound 0.316 µM, first compound 0.00316 µM
[10] = second compound 0.316 µM, first compound 0.01 µM
[11] = second compound 0.316 µM, first compound 0.0316 µM
[12] = second compound 0.316 µM, first compound 0.1 µM
[13] = second compound 1 µM, first compound 0.000316 µM
[14] = second compound 1 µM, first compound 0.001 µM
[15] = second compound 1 µM, first compound 0.00316 µM
[16] = second compound 1 µM, first compound 0.01 µM
[17] = second compound 1 µM, first compound 0.0316 µM
[18] = second compound 1 µM, first compound 0.1 µM
[19] = second compound 3.16 µM, first compound 0.000316 µM
[20] = second compound 3.16 µM, first compound 0.001 µM
[21] = second compound 3.16 µM, first compound 0.00316 µM
[22] = second compound 3.16 µM, first compound 0.01 µM
[23] = second compound 3.16 µM, first compound 0.0316 µM
[24] = second compound 3.16 µM, first compound 0.1 µM
[25] = second compound 10 µM, first compound 0.000316 µM
[26] = second compound 10 µM, first compound 0.001 µM
[27] = second compound 10 µM, first compound 0.00316 µM
[28] = second compound 10 µM, first compound 0.01 µM
[29] = second compound 10 µM, first compound 0.0316 µM
[30] = second compound 10 µM, first compound 0.1 µM
[31] = second compound 0.1 µM, first compound 0.316 µM
[32] = second compound 0.1 µM, first compound 1 µM
[33] = second compound 0.1 µM, first compound 3.16 µM
[34] = second compound 0.1 µM, first compound 10 µM
[35] = second compound 0.316 µM, first compound 0.316 µM
[36] = second compound 0.316 µM, first compound 1 µM
[37] = second compound 0.316 µM, first compound 3.16 µM
[38] = second compound 0.316 µM, first compound 10 µM
[39] = second compound 1 µM, first compound 0.316 µM
[40] = second compound 1 µM, first compound 1 µM
[41] = second compound 1 µM, first compound 3.16 µM
[42] = second compound 1 µM, first compound 10 µM
[43] = second compound 3.16 µM, first compound 0.316 µM
[44] = second compound 3.16 µM, first compound 1 µM
[45] = second compound 3.16 µM, first compound 3.16 µM
[46] = second compound 3.16 µM, first compound 10 µM
[47] = second compound 10 µM, first compound 0.316 µM
[48] = second compound 10 µM, first compound 1 µM
[49] = second compound 10 µM, first compound 3.16 µM
[50] = second compound 10 µM, first compound 10 µM
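Note: spheroids exposed to agents for seven days before reading.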
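Throughout, for viability, T/C: 100% = DMSO vehicle wells so lower means fewer viable cells.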

SMILES	IC50 (second compound 0.1 µM)	IC50 (second compound 0.316 µM)	IC50 (second compound 1 µM)	IC50 (second compound 3.16 µM)	IC50 (second compound 10 µM)	viability, T/C [1]	viability, T/C [2]	viability, T/C [3]	viability, T/C [4]	viability, T/C [5]	viability, T/C [6]	viability, T/C [7]	viability, T/C [11]	viability, T/C [12]	viability, T/C [17]	viability, T/C [18]	viability, T/C [23]	viability, T/C [24]	viability, T/C [29]	viability, T/C [30]	further results
CC(C)n1nc(-c2ccc3oc(N)nc3c2)c2c(N)ncnc21 + CNCc1ccccc1-c1csc(C(C)Nc2nc(C)nc3cc(OC)c(OC)cc23)c1	4.87 nM	4.21 nM	2.3 nM	< 0.316 nM	< 0.316 nM	87.6%	80.3%	59.9%	33.4%	13.8%	7.32%	76.8%	10.3%	6.25%	7.89%	4.25%	0.04%	1.36%	0.24%	0.39%	viability, T/C [8]: 73.2%; viability, T/C [9]: 56%; viability, T/C [10]: 30.4%; viability, T/C [13]: 68.2%; viability, T/C [14]: 63.9%; viability, T/C [15]: 43.4%; viability, T/C [16]: 25.6%; viability, T/C [19]: 20.1%; viability, T/C [20]: 0.14%; viability, T/C [21]: 1.09%; viability, T/C [22]: 0.2%; viability, T/C [25]: 0.49%; viability, T/C [26]: 0.14%; viability, T/C [27]: 0.93%; viability, T/C [28]: 0.51%
CC1(C)CCC(CN2CCN(c3ccc(C(=O)NS(=O)(=O)c4ccc(NCC5CCOCC5)c([N+](=O)[O-])c4)c(Oc4cnc5[nH]ccc5c4)c3)CC2)=C(c2ccc(Cl)cc2)C1 + CNCc1ccccc1-c1csc(C(C)Nc2nc(C)nc3cc(OC)c(OC)cc23)c1	3280 nM	2710 nM	1930 nM	< 31.6 nM	< 31.6 nM					90.5%	78.1%		84.3%	79.5%	72.5%	72.8%	1.08%	0.13%	0.41%	0.15%	viability, T/C [31]: 79.4%; viability, T/C [32]: 77.5%; viability, T/C [33]: 50.8%; viability, T/C [34]: 13.7%; viability, T/C [35]: 73.2%; viability, T/C [36]: 76.4%; viability, T/C [37]: 46%; viability, T/C [38]: 9.74%; viability, T/C [39]: 71.3%; viability, T/C [40]: 72.3%; viability, T/C [41]: 33.2%; viability, T/C [42]: 1.07%; viability, T/C [43]: 0.22%; viability, T/C [44]: 0.13%; viability, T/C [45]: 0.09%; viability, T/C [46]: 0.25%; viability, T/C [47]: 0.26%; viability, T/C [48]: 0.14%; viability, T/C [49]: 0.16%; viability, T/C [50]: 0.23%
COc1cc2nccc(Oc3ccc(NC(=O)C4(C(=O)Nc5ccc(F)cc5)CC4)cc3)c2cc1OC + CNCc1ccccc1-c1csc(C(C)Nc2nc(C)nc3cc(OC)c(OC)cc23)c1	2040 nM	1910 nM	1670 nM	< 31.6 nM	< 31.6 nM					79.7%	80.7%		83%	72.5%	72.8%	73.5%	0.12%	0.17%	0.12%	0.11%	viability, T/C [31]: 88.2%; viability, T/C [32]: 85.9%; viability, T/C [33]: 29.3%; viability, T/C [34]: 0.95%; viability, T/C [35]: 77.7%; viability, T/C [36]: 73.3%; viability, T/C [37]: 31.8%; viability, T/C [38]: 0.58%; viability, T/C [39]: 69.7%; viability, T/C [40]: 69.5%; viability, T/C [41]: 25.8%; viability, T/C [42]: 0.3%; viability, T/C [43]: 1.01%; viability, T/C [44]: 0.1%; viability, T/C [45]: 0.06%; viability, T/C [46]: 0.15%; viability, T/C [47]: 0.34%; viability, T/C [48]: 0.34%; viability, T/C [49]: 0.71%; viability, T/C [50]: 0.81%
Cn1ncnc1[C@H]1c2n[nH]c(=O)c3cc(F)cc(c23)N[C@@H]1c1ccc(F)cc1 + CNCc1ccccc1-c1csc(C(C)Nc2nc(C)nc3cc(OC)c(OC)cc23)c1	18.4 nM	10.7 nM	5.81 nM	< 0.316 nM	< 0.316 nM	84%	81.7%	81.6%	62.9%	38%	19.7%	72.8%	28.2%	19.9%	30.9%	21.7%	0.06%	0.15%	0.16%	0.34%	viability, T/C [8]: 70.2%; viability, T/C [9]: 61.7%; viability, T/C [10]: 54.4%; viability, T/C [13]: 63.2%; viability, T/C [14]: 68.8%; viability, T/C [15]: 53.7%; viability, T/C [16]: 44.5%; viability, T/C [19]: 0.09%; viability, T/C [20]: 0.09%; viability, T/C [21]: 0.1%; viability, T/C [22]: 0.07%; viability, T/C [25]: 0.12%; viability, T/C [26]: 0.11%; viability, T/C [27]: 0.12%; viability, T/C [28]: 0.12%
